From US20220211606A1, “LIQUID COMPOSITION FOR INFLUENCING THE MICROBIOTA ON A SUBJECT'S SKIN COMPRISING CHITOSAN” (Medoderm GmbH, priority 2019, published 2022)

Key:
Staphylococcus aureus [1] = test: Microbiome agar matrix test, surface pathogen; format: cell-based; conditions: 20 μl on agar surface; 37° C. over night; inoculum 2.0×10^6 CFU
Description: For the present experiment, the above microbiome organisms are seeded out on an agar plate. Afterwards the organisms are embedded in a special microbiome agar matrix to simulate the epidermis layers. […] In the next step the test formulation is applied onto small areas on the surface and the test setup is incubated at 37° C. over night. After incubation, growth of the matrix-embedded microbiome organisms and superficial Staphylococcus aureus is used for the assessment of an influence of the test formulation on the microbiome organisms. […] If the applied product also causes a growth inhibition of the microbiome organisms, the product is assessed to have negative influence on the human microbiome. A disinfectant agent (isopropanol:water 70:30) is used as […] to inhibit growth of the pathogen as well as the microbiome organisms. Buffer solution (used for dilution, if applied; 0.9% (w/w) NaCl in water) is used as a negative control. The sample volume of test formulation is 20 μl. The inoculum microbiome contains 2.0×10^6 CFU (colony forming units). The inoculum pathogen was set at 2.0×10^6 CFU.

Staphylococcus aureus [2] = test: Repopulation of disinfected human skin (Rodac contact plates), pathogen; format: in vivo; conditions: upper arm disinfected with 70% isopropanol; 0, 1 h, 2 h, 4 h, 6 h; 100 μl on approx. 50 cm^2
[3] = tested on: endogenous skin microflora; test: Repopulation of disinfected human skin after contact with worn clothing (Rodac contact plates); format: in vivo; conditions: after 6 h test period, 10 minutes contact with worn clothing, sampled 1 h after removal
Description: The test germ corresponded to endogenous skin microflora. […] The sample size was approx. 50 cm^2 skin surface area and the sample volume 100 μl. Contact time was 0, 1 h, 2 h, 4 h, 6 h, after contact and 1 h after contact.
Rodac contact plates were used for sampling of microorganisms from human skin (upper arm) before and after treatment. The upper arm region was chosen to prevent contamination by touching and clothing. Disinfection was performed with 70% isopropanol.
After the 6 h test period, the test areas were exposed to worn clothing for 10 minutes, resulting in a typical transfer of microorganism from clothing to the skin surface (time point directly after contact). 1 h after removal of clothing the bacteria were collected from the test areas aby Rodac contact plates.

CC(C)O [Disinfection, isopropanol]
growth of superficial Staphylococcus aureus (Staphylococcus aureus [1]): neither growth on the surface
Staphylococcus aureus on the test area (Staphylococcus aureus [2]): only found on the “Disinfection” test area
microorganisms collected 1 h after exposure to worn clothing [3]: also showed pathogenic organisms (gram-negative bacteria=big colonies)
